Results from patent US20160303095A1, “METHODS OF TREATING HEPATITIS B VIRUS” (Gilead Sciences, Inc., priority 2015, published 2016).
Where two headings read alike, the source gives them in different places.

What was measured:
HBV [1] = assay: Determination of HBV viral RNA by RT-qPCR in PHH; assay type: cell-based; settings: Hepatitis B virus, read-out: HBV RNA EC50
Description: HBV antiviral activity was assessed in primary human hepatocytes (PHH) in a 96-well format. PHH were (Life Technologies, Chicago, 11) plated on collagen coated tissue culture plates using Plating Media containing William's Medium E supplemented with 1% Penicillin/Streptomycin, 4 μg/mL human recombinant insulin, 2 mM glutamax, 15 mM Hepes, 1 μM dexamethasone and 5% fetal bovine serum (Life Technologies, Cat#A12176-01 Life Technologies, Chicago, Ill.). After a 4-hour incubation at 37° C., cells were switched to Maintenance Media (Cat#CM4000-A15564 Life Technologies, Chicago, Ill.) containing William's Medium E supplemented with 0.5% Penicillin/Streptomycin, 6.25 μg/mL human recombinant insulin, 6.25 μg/mL human transferrin, 6.25 ng/mL selenous acid, 1.25 mg/mL bovine serum albumin, 5.35 μg/mL linoleic acid, 2 mM glutamax, 15 mM Hepes, 0.1 μM dexamethasone, 2% fetal bovine serum, and 2% DMSO (Cat#D2650 Sigma, St. Louis, Mo.). On the next day, cells were infected with approximately 500 genome equivalent of selected HBV clinical isolates (21P (GTA), 32P (GTA), 91P (GTA), AD38 (GTD), 65P (GTD) or 30P (GTE); ProteoGenex, Culver City, Calif.) per cell in Maintenance Media supplemented with 4% PEG 8000 (Cat#V3011 Promega, Madison, Wis.). After 24 hour incubation cells were washed three times with William's Medium E and fed with fresh Maintenance Media. Small molecule inhibitors targeting KDMs were serially diluted in Maintenance Media and added to cells at 3 days post infection (p.i.). Media with compounds was replenished every 2-3 days. Media collected on various days was used for determination of HBsAg and HBeAg levels by MSD ELISA, and HBV RNA by qPCR. All data were converted into percentages of the untreated control and non-linear regression was performed to calculate EC50 or CC50 values.
Following the Alamar Blue measurement, media was removed and total RNA from the cells was isolated using the RNeasy 96 Kit (Cat#74182 Qiagen, Venlo, Netherlands). […] GAPDH mRNA levels were also measured by RT-qPCR to control for differences in cell number, toxicity, and RNA purification efficiency (Cat#4390849 Life Technologies, Chicago Ill.). HBV mRNA Ct values were normalized using their cognate GAPDH mRNA Ct values by the delta-delta-Ct calculation and then expressed as a percentage of the non-targeting scrambled control.

[2] = Alamar Blue cell viability assay; assay type: cell-based; settings: human; D 28; PHH donor 8181; virus 21p
HBV [3] = assay: Effect of the withdrawal of KDM inhibitors on HBV rebound (HBsAg, HBeAg) in PHH; assay type: cell-based, Hepatitis B Virus; settings: for suppression of viral transcription after withdrawal: up to another 14 days after withdrawal; for HBeAg / HBsAg: PHH donor 8181, virus P21, compound removed after two weeks; for rebound of HBsAg or HBeAg secretion into media after compound withdrawal: PHH donor 8181, 21p virus, 14 days treatment, then 14 days without compound
Description: PHH from donor 8181 infected with 21p virus was treated with serially diluted Examples 8 or 7 for 14 days. Afterwards the compound was removed and cell cultures were replenished regularly with fresh medium but without compound for another 14 days. The levels of HBsAg and HBeAg secretion were measured during the course of the experiment to monitor the effects of compound on virus replication. No rebound of HBsAg or HBeAg secretion into media was observed after the compound withdrawal.
(§1) PHH from donor 8181 were infected with patient viruses P21 for three days before serially diluted Example 8 was added to the cells. After two weeks of the treatment the compound was removed and cells were followed for another 14 days. Activity of the compound was monitored during the course of the experiment using HBsAg and HBeAg readout. The medium with/without compound was replenished every 3-4 days. Day 0—compound was added to the infected cells.
as §1, with “PHH” for “PHH from”, “8181 was” for “8181 were”, “Example 7” for “Example 8”

H3K4me3 mark = assay: Western blot detection of H3K4me3 in HBV-infected PHHs; assay type: cell-based, human; settings: for IC50: Homo sapiens; for chromatin H3K4Me3 mark: PHH from three different donors
Description: One million primary human hepatocytes (PHH) cells from three different donors were plated in 6 well collagen coated tissue culture plates in 2.5 ml Plating Media containing William's Medium E supplemented with 1% Penicillin/Streptomycin, 4 μg/mL human recombinant insulin, 2 mM glutamax, 15 mM Hepes, 1 μM dexamethasone and 5% fetal bovine serum (Life Technologies, Cat#A12176-01 Life Technologies, Chicago, Ill.) and incubated for 4-hours at 37° C. Following this incubation the media was changed to Maintenance Media (Cat#CM4000-A15564 Life Technologies, Chicago, Ill.) containing William's Medium E supplemented with 0.5% Penicillin/Streptomycin, 6.25 μg/mL human recombinant insulin, 6.25 μg/mL human transferrin, 6.25 ng/mL selenous acid, 1.25 mg/mL bovine serum albumin, 5.35 μg/mL linoleic acid, 2 mM glutamax, 15 mM Hepes, 0.1 μM dexamethasone, 2% fetal bovine serum, and 2% DMSO (Cat#D2650 Sigma, St. Louis, Mo.). The next day, cells were infected with approximately 500 genome equivalents of HBV clinical isolates 21P (GTA) or AD38 (GTD) per cell in Maintenance Media supplemented with 4% PEG 8000. Small molecule inhibitors targeting KDMs were serially diluted in Maintenance Media and added to cells at 3 days post infection (p.i.). Media with compounds was replenished every 2-3 days. Cells were harvested on day 14 p.i. by scraping the monolayer into ice-cold PBS supplemented with 5 mM Sodium Butyrate and concentrated by centrifugation at 1000×g for 5 minutes at 4° C. The cell pellets were washed twice by re-suspension in PBS and concentrated by centrifugation. The cells were lysed by suspension in Triton Extraction Buffer (TEB: PBS containing 0.5% Triton X 100 (v/v), 2 mM phenylmethylsulfonyl fluoride (PMSF), 0.02% (w/v) NaN3) at a cell density of 10^7 cells per ml and incubated on ice for 10 minutes with gentle stirring. Following centrifugation at 500 g for 10 minutes at 4° C., the supernatants were removed and the pellets were washed in 5×10^7 cells per ml TEB buffer and centrifuged as before. The pellets were re-suspended in 0.2N HCl at a cell density of 4×10^7 cells per ml and the histones were acid extracted overnight at 4° C. Samples were centrifuged at 500 g for 10 minutes at 4° C., the supematants were removed and protein content was determined using the Bradford assay. Histones were separated on a 4-20% gradient SDS gel (Mini protean TGX precast gels from BioRad), and blotted to a Hybond C-extra nitrocellulose membrane (Amersham Biosciences, RPN303E). H3K4me3 and total H3 were detected with a mixture of 1° antibodies (Cat#05-745R Millipore and Cat#14269S Cell Signaling) diluted 1:1000 in 5% skimmed milk powder in PBS containing 0.1% Tween. The western blot was washed 3 times in PBS containing 0.1% tween and incubated with 2° antibodies (Donkey anti-Mouse IRDye at 680LT Cat#926-68022 Licor Odyssey; Donkey anti-Rabbit IRDye at 800CW Cat#96-32213; Licor Odyssey) diluted 1:10000 in 5% skimmed milk powder in PBS containing 0.1% tween 20 for 1 h. Detection of infrared fluorescence was performed on Infrared Fluorescence Imaging System LI-COR. Concentration dependence of H3K4me3/H3 signal was used to calculate IC50 value for induction of H3K4 trimethylation.

[4] = read-out: IC50 (concentration causing a 50% increase in the H3K4me3 mark), Virus 21P (GTA), PHH 4239
[5] = read-out: IC50 (concentration causing a 50% increase in the H3K4me3 mark), Virus 21P (GTA), PHH 8130
[6] = read-out: IC50 (concentration causing a 50% increase in the H3K4me3 mark), Virus 21P (GTA), PHH 8181
[7] = read-out: IC50 (concentration causing a 50% increase in the H3K4me3 mark), Virus AD38 (GTD), PHH 4239
[8] = read-out: IC50 (concentration causing a 50% increase in the H3K4me3 mark), Virus AD38 (GTD), PHH 8130
[9] = read-out: IC50 (concentration causing a 50% increase in the H3K4me3 mark), Virus AD38 (GTD), PHH 8181

With `Nc1c(C(=O)O)ccnc1C(=O)O` [Example 7, reference compound] the EC50 (HBV [1]; HBV-infected PHH) was 224 nM, the CC50 at 28 day [2] was greater than 50000 nM and the “suppression of viral transcription after withdrawal” value (HBV [3]; 2 μM) was “prolonged suppression of viral transcription”. The HBeAg (HBV [3]; 2000 nM, Day 0) was 0 ng/mL, the HBsAg (HBV [3]; 2000 nM, Day 0) was 0 ng/mL and the HBeAg (HBV [3]; 2000 nM, Day 5) was 9.2 ng/mL. It also gave an HBsAg (HBV [3]; 2000 nM, Day 5) of 20.6 ng/mL, an HBeAg (HBV [3]; 2000 nM, Day 10) of 25.1 ng/mL and an HBsAg (HBV [3]; 2000 nM, Day 10) of 149.2 ng/mL. For the same compound, the HBeAg (HBV [3]; 2000 nM, Day 14) was 13.7 ng/mL, the HBsAg (HBV [3]; 2000 nM, Day 14) was 68.6 ng/mL and the HBeAg (HBV [3]; 2000 nM, Day 19) was 7.0 ng/mL. It also gave an HBsAg (HBV [3]; 2000 nM, Day 19) of 26.8 ng/mL, an HBeAg (HBV [3]; 2000 nM, Day 24) of 5.3 ng/mL and an HBsAg (HBV [3]; 2000 nM, Day 24) of 11.7 ng/mL. For the same compound, the HBeAg (HBV [3]; 2000 nM, Day 28) was 5.4 ng/mL, the HBsAg (HBV [3]; 2000 nM, Day 28) was 19.1 ng/mL and the “rebound of HBsAg or HBeAg secretion into media after compound withdrawal” value (HBV [3]) was “No rebound”.

With `CCOC(=O)c1ccnc(CNCC(=O)N(CC)CCN(C)C)c1` [Example 8] the EC50 (HBV [1]) was 100 nM, the IC50 (H3K4me3 mark; [4]) was 30 nM and the IC50 (H3K4me3 mark; [5]) was 1 nM. For the same compound, the IC50 (H3K4me3 mark; [6]) was 70 nM, the IC50 (H3K4me3 mark; [7]) was 30 nM and the IC50 (H3K4me3 mark; [8]) was 3 nM. The IC50 (H3K4me3 mark; [9]) was 50 nM, the “chromatin H3K4Me3 mark” value (H3K4me3 mark) was “increase in the chromatin H3K4Me3 mark in a dose-dependent manner” and the CC50 at 28 day [2] was 20000 nM. For the same compound, the HBeAg (HBV [3]; 20 nM, Day 0) was 0 ng/mL, the HBsAg (HBV [3]; 20 nM, Day 0) was 0 ng/mL and the HBeAg (HBV [3]; 20 nM, Day 5) was 5.3 ng/mL. It also gave an HBsAg (HBV [3]; 20 nM, Day 5) of 13.8 ng/mL, an HBeAg (HBV [3]; 20 nM, Day 10) of 31 ng/mL and an HBsAg (HBV [3]; 20 nM, Day 10) of 147 ng/mL. It also gave an HBeAg (HBV [3]; 20 nM, Day 14) of 13 ng/mL, an HBsAg (HBV [3]; 20 nM, Day 14) of 30 ng/mL and an HBeAg (HBV [3]; 20 nM, Day 19) of 3 ng/mL. For the same compound, the HBsAg (HBV [3]; 20 nM, Day 19) was 9 ng/mL, the HBeAg (HBV [3]; 20 nM, Day 24) was 2.3 ng/mL and the HBsAg (HBV [3]; 20 nM, Day 24) was 4.4 ng/mL. The HBeAg (HBV [3]; 20 nM, Day 28) was 1.9 ng/mL, the HBsAg (HBV [3]; 20 nM, Day 28) was 5.26 ng/mL and the “suppression of viral transcription after withdrawal” value (HBV [3]; 0.08 μM) was “prolonged suppression of viral transcription”. The “rebound of HBsAg or HBeAg secretion into media after compound withdrawal” value (HBV [3]) was “No rebound”.

With `CCN(CCN(C)C)C(=O)CNCc1cc(C(=O)O)ccn1` [Example 9] the IC50 (H3K4me3 mark; [4]) was 60 nM, the IC50 (H3K4me3 mark; [5]) was 130 nM and the IC50 (H3K4me3 mark; [6]) was 100 nM. The IC50 (H3K4me3 mark; [7]) was 10 nM, the IC50 (H3K4me3 mark; [8]) was 130 nM and the IC50 (H3K4me3 mark; [9]) was 130 nM. For the same compound, the “chromatin H3K4Me3 mark” value (H3K4me3 mark) was “increase in the chromatin H3K4Me3 mark in a dose-dependent manner” and the CC50 at 28 day [2] was greater than 100000 nM.
